Residue numbers refer to the chain shown, from its start. Entries after “also recorded” stand apart in the source; their conditions may differ. Blank lines part the entries; values can stand above or below the compound they belong to.
How the values were obtained:
[1] = target: T1, T315I ABL mutant kinase domain (Homo sapiens, UniProt P00519, T315I); assay: Indolinone probe titration (fluorescence), probe of 3.1; format: binding; conditions: Table 1; 10 nM enzyme, probe 3 μM to 0
T1 construct: ABL kinase domain (corresponding to residues 229-512); GST (N, cleaved yes); PreScission cleavage site (N, cleaved yes); made in house; host or cells: High5 insect cells (baculovirus)
T1 sequence (P00519 229-512 T315I): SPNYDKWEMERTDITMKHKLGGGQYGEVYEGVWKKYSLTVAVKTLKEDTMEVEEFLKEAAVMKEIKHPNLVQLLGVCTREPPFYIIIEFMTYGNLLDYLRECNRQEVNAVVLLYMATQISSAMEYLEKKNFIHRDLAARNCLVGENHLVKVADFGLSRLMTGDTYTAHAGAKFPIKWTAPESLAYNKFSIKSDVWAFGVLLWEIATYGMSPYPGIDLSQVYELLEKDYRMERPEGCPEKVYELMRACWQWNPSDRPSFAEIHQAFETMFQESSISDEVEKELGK
Procedure: (§1) Data analysis was performed using the Dynafit software.

[2] = target: T2, Wild-type ABL 0P (unphosphorylated) kinase domain (Homo sapiens, UniProt P00519); assay: as above; format: binding; conditions: Table 1; 10 nM enzyme, probe 3 μM to 0
T2 construct: ABL kinase domain (corresponding to residues 229-512); GST (N, cleaved yes); PreScission cleavage site (N, cleaved yes); made in house; host or cells: High5 insect cells (baculovirus)
T2 sequence (P00519 229-512): T1 sequence (P00519 229-512 T315I) with I87T
Procedure: as §1

[3] = target: T3, wild-type ABL kinase domain (Homo sapiens, UniProt P00519); assay: as above; format: binding; conditions: Table 1; 10 nM enzyme, probe 3 μM to 0
T3 construct: ABL kinase domain (corresponding to residues 229-512); GST (N, cleaved yes); PreScission cleavage site (N, cleaved yes); made in house; host or cells: High5 insect cells (baculovirus)
T3 sequence (P00519 229-512): T1 sequence (P00519 229-512 T315I) with I87T
Procedure: as §1

[4] = target: T1, T315I ABL mutant kinase domain; assay: ATP site-dependent displacement assay, indolinone probe of 3.1; format: binding
From the text: (§2) KD values, are the average of three independent experiments.

[5] = target: T2, Wild-type ABL 0P (unphosphorylated) kinase domain; assay: as above; format: binding
From the text: as §2

[6] = target: T3, wild-type ABL kinase domain; assay: as above; format: binding
From the text: as §2

[7] = target: T1, T315I ABL mutant kinase domain; assay: ATP site-dependent displacement assay, indolinone probe of 3.2; format: binding
From the text: as §2

[8] = target: T2, Wild-type ABL 0P (unphosphorylated) kinase domain; assay: as above; format: binding
From the text: as §2

[9] = target: T3, wild-type ABL kinase domain; assay: as above; format: binding
From the text: as §2

[10] = target: T4, BCR-ABL in K-562 leukemia cells (Homo sapiens, UniProt P00519); assay: Immunoblotting of K-562 leukemia cells, inhibition of BCR-ABL signaling; format: cell-based; conditions: K-562 cells treated for one hour
T4 construct: endogenously expressing BCR-ABL cells; endogenous in cells; host or cells: K-562; the other entry of the earlier key: BCR (P11274, Breakpoint cluster region protein)

[11] = target: T5, wild-type ABL in HCT-116 transfected cells (Homo sapiens, UniProt P00519); assay: Immunoblotting of transfected HCT-116 cells (pY412-ABL); format: cell-based; conditions: 5 μM, HCT-116 transfected with wild-type construct, FIG. 3
T5 construct: ABL cDNA (corresponding to residues 27-1130); expressed in transfected cells; host or cells: HCT-116
Procedure: (§3) Amplification was performed using the forward oligonucleotide:
(§4) Immunoblotting was performed according to standard methods.

[12] = target: T6, T315I ABL mutant in HCT-116 transfected cells (Homo sapiens, UniProt P00519, T315I); assay: as above; format: cell-based; conditions: 5 μM, HCT-116 transfected with T315I mutant construct, FIG. 3
T6 construct: ABL cDNA (corresponding to residues 27-1130); expressed in transfected cells; host or cells: HCT-116
Procedure: as §3
Oligonucleotide used in the mutagenesis reaction was:
as §4

[13] = target: T1, T315I ABL mutant kinase domain; assay: Indolinone probe titration (fluorescence), probe of 3.2; format: binding; conditions: Table 4
Procedure: (§5) The titration experiment was performed as follows: 10 nM ABL kinase domains (wild-type or T315I mutant), indolinone concentration from 3 μM to 0, with dilution steps 1:1.5 in 50 mM TrisHCl, pH 7.5, 150 mM NaCl, 5 mM MgCl2, 1 mM MnCl2, 1 mM DTT, 1% DMSO, 3 μM NaaVO4(buffer 1).

[14] = target: T2, Wild-type ABL 0P (unphosphorylated) kinase domain; assay: as above; format: binding; conditions: Table 4
Procedure: as §5

[15] = target: T3, wild-type ABL kinase domain; assay: as above; format: binding; conditions: Table 4
Procedure: as §5

[16] = Tables 2 and 3, probe 3.1, 3 μM highest inhibitor concentration
[17] = Table 2, probe 3.1, 3 μM highest inhibitor concentration
[18] = Tables 5 and 6, probe 3.2, 3 μM highest inhibitor concentration, average of three experiments
[19] = Table 5, probe 3.2, 3 μM highest inhibitor concentration, average of three experiments

SMILES: CCN(CC)CCNC(=O)c1c(C)[nH]c(/C=C2\C(=O)Nc3ccc(S(=O)(=O)Cc4ccccc4)cc32)c1C [2,4-dimethyl-5-[2-oxo-5-phenylmethanesulfonyl-1,2-dihydro-indol-(3Z)-ylidenemethyl]-1H-pyrrole-3-carboxylic acid (2-diethylamino-ethyl)-amide]
- Kd [1]: 140 ± 70 nM
- Kd [2]: 50 ± 30 nM
- Kd [3]: 40 ± 20 nM

SMILES: Nc1ncnc2c1ncn2[C@@H]1O[C@H](COP(=O)(O)OP(=O)(O)OP(O)(O)=S)[C@@H](O)[C@H]1O [ATPγS, reference compound]
- Kd ([4]; Table 1 validation, probe 3.1 at 0.42 μM, highest conc. ATPγS 250 μM, Imatinib 10 μM, average of three experiments): 2000 ± 210 nM
- Kd ([5]; Table 1 validation, probe 3.1 at 0.15 μM, highest conc. ATPγS 250 μM, Imatinib 10 μM, average of three experiments): 9500 ± 3400 nM
- Kd ([6]; Table 1 validation, probe 3.1 at 0.12 μM, highest conc. ATPγS 250 μM, Imatinib 10 μM, average of three experiments): 9000 ± 1900 nM
- Kd ([7]; Table 4 validation, probe 3.2 at 0.2 μM): 2610 ± 900 nM
- Kd ([8]; Table 4 validation, probe 3.2 at 2 μM): 6600 ± 1600 nM
- Kd ([9]; Table 4 validation, probe 3.2 at 3.3 μM): 4800 ± 1000 nM

SMILES: CC(C)(NC(=O)c1cc2c(NC(=O)c3ccc(CN4CCCCC4)cc3)n[nH]c2s1)c1ccccc1 [Compound 1, 3-(4-Piperidin-1-ylmethyl-benzoylamino)-1H-thieno[2,3-c]pyrazole-5-carboxylic acid (1-methyl-1-phenyl-ethyl)-amide]
- Kd [4, 16]: 21 ± 6 nM
- Kd [5, 17]: 240 ± 30 nM
- Kd [6, 17]: 250 ± 75 nM
- Kd [7, 18]: 37 ± 13 nM
- Kd [8, 19]: 278 ± 122 nM
- Kd [9, 19]: 310 ± 26 nM
- effect on Src [10]: no effect on Src
- inhibition of ABL auto-phosphorylation of Y412 ([10]; FIG. 2): inhibit phosphorylation of Y412
- inhibition of phosphorylation of downstream mediators Stat-5 and Crkl ([10]; FIG. 2): inhibit
- inhibitory activity on ABL (pY412-ABL immunoblot) [11]: capable of inhibiting; also recorded: strong inhibitory activity
- inhibitory activity on ABL (pY412-ABL immunoblot) [12]: capable of inhibiting; also recorded: strong inhibitory activity

SMILES: CC(C)(NC(=O)c1cc2c(NC(=O)c3ccc(CN4CCCCC4)cc3)n[nH]c2s1)c1ccccc1F [Compound 2, 3-(4-Piperidin-1-ylmethyl-benzoylamino)-1H-thieno[2,3-c]pyrazole-5-carboxylic acid [1-(2-fluoro-phenyl)-1-methyl-ethyl]-amide]
- Kd [4, 16]: 15 ± 4 nM
- Kd [5, 17]: 107 ± 21 nM
- Kd [6, 17]: 177 ± 32 nM
- Kd [7, 18]: 15 ± 4 nM
- Kd [8, 19]: 107 ± 21 nM
- Kd [9, 19]: 177 ± 32 nM

SMILES: CC(C)(NC(=O)c1cc2c(NC(=O)c3ccc(CN4CCOCC4)cc3)n[nH]c2s1)c1ccccc1F [Compound 3, 3-(4-Morpholin-4-ylmethyl-benzoylamino)-1H-thieno[2,3-c]pyrazole-5-carboxylic acid [1-(2-fluoro-phenyl)-1-methyl-ethyl]-amide]
- Kd [4, 16]: 47 ± 15 nM
- Kd [5, 17]: 330 ± 150 nM
- Kd [6, 17]: 370 ± 160 nM
- Kd [7, 18]: 70 ± 22 nM
- Kd [8, 19]: 350 ± 50 nM
- Kd [9, 19]: 553 ± 136 nM

SMILES: CC(C)(NC(=O)c1cc2c(NC(=O)c3ccc(CN4CCCCC4)cc3)n[nH]c2s1)c1ccc(F)cc1 [Compound 6, 3-(4-Piperidin-1-ylmethyl-benzoylamino)-1H-thieno[2,3-c]pyrazole-5-carboxylic acid [1-(4-fluoro-phenyl)-1-methyl-ethyl]-amide]
- Kd [4, 16]: 14 ± 5 nM
- Kd [7, 18]: 17.4 ± 6 nM

SMILES: CC(C)NCc1ccc(C(=O)Nc2n[nH]c3sc(C(=O)NC(C)(C)c4ccccc4F)cc23)cc1 [Compound 7]
- Kd [4, 16]: 20 ± 2 nM
- Kd [7, 18]: 16.8 ± 3 nM

SMILES: CC(C)(NC(=O)c1cc2c(NC(=O)c3ccc(CN4CCCCC4)cc3)n[nH]c2s1)c1ccccc1Cl [Compound 9, 3-(4-Piperidin-1-ylmethyl-benzoylamino)-1H-thieno[2,3-c]pyrazole-5-carboxylic acid [1-(2-chloro-phenyl)-1-methyl-ethyl]-amide]
- Kd [4, 16]: 14 ± 3.5 nM
- Kd [7, 18]: 18 ± 3.4 nM

SMILES: CC(C)NCc1ccc(C(=O)Nc2n[nH]c3sc(C(=O)NC(C)(C)c4ccccc4)cc23)cc1 [Compound 11, 3-[4-(Isopropylamino-methyl)benzoylamino)-1H-thieno[2,3-c]pyrazole-5-carboxylic acid (1-methyl-1-phenyl-ethyl)-amide]
- Kd [4, 16]: 12 ± 2.5 nM
- Kd [7, 18]: 11 ± 2.6 nM

SMILES: CC(C)(NC(=O)c1cc2c(NC(=O)c3ccc(CN4CCCCC4)cc3)n[nH]c2s1)c1cccc(F)c1 [Compound 13, 3-(4-Piperidin-1-ylmethyl-benzoylamino)-1H-thieno[2,3-c]pyrazole-5-carboxylic acid [1-(3-fluoro-phenyl)-1-methyl-ethyl]-amide]
- Kd [4, 16]: 10 ± 4.6 nM
- Kd [7, 18]: 6.3 ± 3.3 nM

SMILES: CCN(CC)CCNC(=O)c1c(C)[nH]c(/C=C2\C(=O)Nc3ccc(S(=O)(=O)NC)cc32)c1-c1ccc(F)cc1F [N-[2-(diethylamino)ethyl]-4-(2,4-difluorophenyl)-2-methyl-5-((Z)-{5-[(methylamino)sulfonyl]-2-oxo-1,2-dihydro-3H-indol-3-ylidene}methyl)-1H-pyrrole-3-carboxamide]
- Kd [13]: 20 ± 8 nM
- Kd [14]: 200 ± 100 nM
- Kd [15]: 330 ± 120 nM

Continued, values first:

- Kd [4, 16]: 6 ± 3 nM
- Kd [7, 18]: 2.7 ± 1 nM
SMILES: CN1CCC(Oc2ccc(C(=O)Nc3n[nH]c4sc(C(=O)NC(C)(C)c5ccccc5)cc34)cc2)CC1 [Compound 4, 3-[4-(1-Methyl-piperidin-4-yloxy)-benzoylamino]-1H-thieno[2,3-c]pyrazole-5-carboxylic acid (1-methyl-1-phenyl-ethyl)-amide]

- Kd [4, 16]: 4.1 ± 2 nM
- Kd [7, 18]: 5.3 ± 4 nM
SMILES: CN1CCN(c2ccc(C(=O)Nc3n[nH]c4sc(C(=O)NC(C)(C)c5ccccc5)cc34)cc2)CC1 [Compound 5, 3-[4-(4-Methyl-piperazin-1-yl)-benzoylamino]-1H-thieno[2,3-c]pyrazole-5-carboxylic acid (1-methyl-1-phenyl-ethyl)-amide]

- Kd [4, 16]: 12 ± 6 nM
- Kd [7, 18]: 8.3 ± 1.5 nM
SMILES: CN1CCN(c2ccc(C(=O)Nc3n[nH]c4sc(C(=O)NC(C)(C)c5ccccc5F)cc34)cc2)CC1 [Compound 8, 3-[4-(4-Methyl-piperazin-1-yl)-benzoylamino)-1H-thieno[2,3-c]pyrazole-5-carboxylic acid [1-(2-fluoro-phenyl)-1-methyl-ethyl]-amide]

- Kd [4, 16]: 8.4 ± 4 nM
- Kd [7, 18]: 9.3 ± 2.5 nM
SMILES: CN1CCN(Cc2ccc(C(=O)Nc3n[nH]c4sc(C(=O)NC(C)(C)c5ccccc5)cc34)cc2)CC1 [Compound 10, 3-[4-(4-Methyl-piperazin-1-ylmethyl)-benzoylamino]-1H-thieno[2,3-c]pyrazole-5-carboxylic acid (1-methyl-1-phenyl-ethyl)-amide]

- Kd [4, 16]: 16 ± 3.7 nM
- Kd [7, 18]: 11.7 ± 3.8 nM
SMILES: CC(C)(NC(=O)c1cc2c(NC(=O)c3ccc(N4CCOCC4)cc3)n[nH]c2s1)c1ccccc1 [Compound 12, 3-(4-Morpholin-4-yl-benzoylamino)-1H-thieno[2,3-c]pyrazole-5-carboxylic acid (1-methyl-1-phenyl-ethyl)-amide]

From US7803829B2, “Use of a kinase inhibitor for the treatment of particular resistant tumors” (Nerviano Medical Sciences S.r.l., priority 2006, dated 2010)
